Experimental data: ChEMBL document CHEMBL4402569
Activity calls are given as the source filed them. The rule behind the calls is not given here.

Tests used:
H5N1 subtype [1] = experiment: Antiviral activity against pseudotyped Influenza A virus H5N1 (Goose/Qinghai/59/05) infected in human A549 cells assessed as inhibition of viral replication at 12.5 uM incubated for 48 hrs by luciferase reporter gene assay relative to control; type: functional; details: Goose/Qinghai/59/05, A549, 48 h
H5N1 subtype [2] = experiment: Antiviral activity against pseudotyped Influenza A virus H5N1 (Goose/Qinghai/59/05) infected in human A549 cells assessed as inhibition of viral replication at incubated for 48 hrs by luciferase reporter gene assay; type: functional, organism-based; details: Goose/Qinghai/59/05, A549, 48 h
Influenza A virus [3] = experiment: Antiviral activity against Influenza A virus (A/Puerto Rico/8/1934(H1N1)) infected in MDCK cells incubated for 1 hr and measured after 36 hrs by PR8-PB2 Gaussia luciferase reporter gene assay; type: functional, organism-based
Influenza A virus [4] = experiment: Antiviral activity against Influenza A virus (A/Puerto Rico/8/1934(H1N1)) infected in MDCK cells assessed as combination index at 42 nM incubated for 1 hr and measured after 36 hrs in presence of 156 nM Oseltamivir carboxylate by PR8-NS1 Gaussia luciferase reporter gene assay; type: functional
Influenza A virus [5] = experiment: Antiviral activity against Influenza A virus (A/Puerto Rico/8/1934(H1N1)) infected in MDCK cells incubated for 1 hr and measured after 36 hrs by PR8-NS1 Gaussia luciferase reporter gene assay; type: functional, organism-based
H5N1 subtype [6] = experiment: Antiviral activity against Influenza A virus (A/Viet Nam/1203/2004(H5N1)) infected in human A549 cells assessed as decrease in viral titer at 20 uM by standard plaque assay; type: functional
Influenza A virus [7] = experiment: Antiviral activity against Influenza A virus (A/Puerto Rico/8/1934(H1N1)) infected in MDCK cells assessed as combination index at 57 nM incubated for 1 hr and measured after 36 hrs in presence of 156 nM Oseltamivir carboxylate by PR8-NS1 Gaussia luciferase reporter gene assay; type: functional
Influenza A virus [8] = experiment: Antiviral activity against Influenza A virus (A/Puerto Rico/8/1934(H1N1)) infected in MDCK cells assessed as combination index at 49 nM incubated for 1 hr and measured after 36 hrs in presence of 156 nM Oseltamivir carboxylate by PR8-NS1 Gaussia luciferase reporter gene assay; type: functional
Influenza A virus [9] = experiment: Antiviral activity against Influenza A virus (A/Puerto Rico/8/1934(H1N1)) infected in MDCK cells assessed as combination index at 68 nM incubated for 1 hr and measured after 36 hrs in presence of 156 nM Oseltamivir carboxylate by PR8-NS1 Gaussia luciferase reporter gene assay; type: functional
Influenza A virus [10] = experiment: Antiviral activity against Influenza A virus (A/Puerto Rico/8/1934(H1N1)) infected in MDCK cells assessed as combination index at 83 nM incubated for 1 hr and measured after 36 hrs in presence of 156 nM Oseltamivir carboxylate by PR8-NS1 Gaussia luciferase reporter gene assay; type: functional
Influenza A virus [11] = experiment: Antiviral activity against Influenza A virus (A/Puerto Rico/8/1934(H1N1)) infected in MDCK cells assessed as combination index at 114 nM incubated for 1 hr and measured after 36 hrs in presence of 156 nM Oseltamivir carboxylate by PR8-NS1 Gaussia luciferase reporter gene assay; type: functional
Influenza A virus [12] = experiment: Antiviral activity against Influenza A virus (A/Puerto Rico/8/1934(H1N1)) infected in MDCK cells assessed as combination index at 35 nM incubated for 1 hr and measured after 36 hrs in presence of 156 nM Oseltamivir carboxylate by PR8-NS1 Gaussia luciferase reporter gene assay; type: functional
H5N1 subtype [13] = experiment: Antiviral activity against Influenza A virus (A/Viet Nam/1203/2004(H5N1)) infected in human A549 cells assessed as decrease in viral titer at 1 uM by standard plaque assay; type: functional, organism-based
Influenza A virus [14] = experiment: Antiviral activity against Influenza A virus (A/Puerto Rico/8/1934(H1N1)) infected in human A549 cells assessed as decrease in viral titer at 1 uM by standard plaque assay; type: functional, organism-based

SMILES: O=C(NC1CCN(C2CCC2)CC1)c1c(Cl)cccc1Cl
- inhibition at 12.5 µM (H5N1 subtype [1]): 76%

SMILES: CC(C)N1CCC(NS(=O)(=O)c2ccc(Cl)cc2Cl)CC1
- inhibition at 12.5 µM (H5N1 subtype [1]): 1%

SMILES: CC(C)N1CCC(NC(=O)c2ccc([N+](=O)[O-])cc2Cl)CC1
- inhibition at 12.5 µM (H5N1 subtype [1]): 97%
- EC50 (H5N1 subtype [2]): 720 nM
- EC50 (Influenza A virus [3]): 211 nM

SMILES: CC(C)N1CCC(NC(=O)c2c(Cl)cccc2Cl)C1 (stereo not given)
- inhibition at 12.5 µM (H5N1 subtype [1]): 11%

SMILES: CC(C)N1CCC(CNC(=O)c2c(Cl)cccc2Cl)CC1
- inhibition at 12.5 µM (H5N1 subtype [1]): 23%

SMILES: CC(C)N1CCCC(NC(=O)c2c(Cl)cccc2Cl)CC1 (stereo not given)
- inhibition at 12.5 µM (H5N1 subtype [1]): 71%

SMILES: CC(C)N1CCCC(NC(=O)c2c(Cl)cccc2Cl)C1 (stereo not given)
- inhibition at 12.5 µM (H5N1 subtype [1]): 14%

SMILES: O=C(NC1CCN(C2CCCCC2)CC1)c1ccc(C(F)(F)F)cc1Cl
- inhibition at 12.5 µM (H5N1 subtype [1]): 98%
- EC50 (H5N1 subtype [2]): 910 nM
- EC50 (Influenza A virus [3]): 505 nM

SMILES: O=C(NC1CCN(C2CC2)CC1)c1c(Cl)cccc1Cl
- inhibition at 12.5 µM (H5N1 subtype [1]): 33%

SMILES: CC(C)N1CCC(N(Cc2ccccc2)C(=O)c2c(Cl)cccc2Cl)CC1
- inhibition at 12.5 µM (H5N1 subtype [1]): 64%

SMILES: CC(C)N1CCC(N(C)C(=O)c2c(Cl)cccc2Cl)CC1
- inhibition at 12.5 µM (H5N1 subtype [1]): 91%
- EC50 (H5N1 subtype [2]): 4450 nM
- EC50 (Influenza A virus [3]): 724 nM

SMILES: CCC(CC)O[C@@H]1C=C(C(=O)O)C[C@H](N)[C@H]1NC(C)=O [OSELTAMIVIR CARBOXYLATE]
- CI (Influenza A virus [4]): 0.94
- EC30 (Influenza A virus [5]): 160 nM
- EC40 (Influenza A virus [5]): 229 nM
- EC50 (Influenza A virus [5]): 318 nM
- EC60 (Influenza A virus [5]): 441 nM
- EC70 (Influenza A virus [5]): 629 nM
- EC80 (Influenza A virus [5]): 972 nM
- EC90 (Influenza A virus [5]): 1870 nM
- inhibition (H5N1 subtype [6]): inactive
- CI (Influenza A virus [7]): 0.61
- CI (Influenza A virus [8]): 0.75
- CI (Influenza A virus [9]): 0.51
- CI (Influenza A virus [10]): 0.42
- CI (Influenza A virus [11]): 0.34
- CI (Influenza A virus [12]): 1.23

SMILES: CC(C)N1CCC(NC(=O)c2ncccc2Cl)CC1
- inhibition at 12.5 µM (H5N1 subtype [1]): 40%

SMILES: CC(C)N1CCC(NC(=O)c2c(Cl)cccc2Cl)C(F)(F)C1 (racemic)
- inhibition at 12.5 µM (H5N1 subtype [1]): 77%

SMILES: CC(C)N1CC[C@H](NC(=O)c2c(Cl)cccc2Cl)[C@@H](F)C1
- inhibition at 12.5 µM (H5N1 subtype [1]): 87%
- EC50 (H5N1 subtype [2]): 1810 nM
- EC50 (Influenza A virus [3]): 885 nM

SMILES: CO[C@H]1CN(C(C)C)CC[C@H]1NC(=O)c1c(Cl)cccc1Cl
- inhibition at 12.5 µM (H5N1 subtype [1]): 64%

SMILES: CC(C)N1CCC(NC(=O)c2ccccc2C(F)(F)F)CC1
- inhibition at 12.5 µM (H5N1 subtype [1]): 31%

SMILES: CC(C)N1CC[C@H](NC(=O)c2ccc(C(F)(F)F)cc2Cl)[C@H](F)C1
- inhibition (H5N1 subtype [13]): Active
- inhibition at 20 µM (H5N1 subtype [6]): 100%
- inhibition at 12.5 µM (H5N1 subtype [1]): 99%
- inhibition (Influenza A virus [14]): Active
- EC50 (H5N1 subtype [2]): 670 nM
- EC50 (Influenza A virus [3]): 195 nM
